Patent US10144929B2, “Polypeptide inhibitors of Smad3 polypeptide activities” (Mayo Foundation for Medical Education and Research, priority 2016, dated 2018)

System: adenovirus-TGFβ models of pulmonary fibrosis
Experiment: Adenovirus-TGFβ model of pulmonary fibrosis
Type: in vivo, Mice
Conditions: 1 mg/kg daily from day 21
Description: FIGS. 13A-C. Mice were infected with 1×10^8 pfu adenovirus particles expressing control (GFP) or active TGFβ by tracheal instillation. On day 21, all animals began daily treatment with either vehicle (methocel/saline) or 1 mg/kg of the indicated TAT polypeptide. (A) On days 21 and 35, peripheral blood oxygen was determined. (B and C) Mice were sacrificed on day 39 and processed for lung hydroxyproline content (B) or qPCR expression of the indicated genes (C) (CTGF, connective tissue growth factor; α-SMA, alpha smooth muscle actin; Col Iα1, collagen Iα1). For panels A-C, data reflect mean+/−SEM of n=8 and n=16 for adenovirus-GFP and adenovirus-TGFβ, respectively. *P<0.05, **P<0.001, ***P<0.0005.
Mice were infected with 1×10^8 pfu adenovirus particles expressing control (GFP) or active TGFβ by tracheal instillation. On day 21, all animals began daily treatment with either vehicle (methocel/saline) or 1 mg/kg of the indicated TAT polypeptide. On days 21 and 35, peripheral blood oxygen was determined. Mice were sacrificed on day 39 and processed for lung hydroxyproline content or qPCR expression of CTGF (connective tissue growth factor), α-SMA (alpha smooth muscle actin), and Col Iα1 (collagen Iα1).

TAT-SH3-2: TAT-SNX9(SH3) fusion polypeptide having SNX9 amino acids 21-51 (31 mer) (TVNEGEIITITNPDVGGGWLEGRNIKGERGL; left off: small tags and cut ends)
lung function (peripheral blood oxygen): stabilized lung function
